Laboratory results published in patent US20040186129A1, “2-Aroylimidazole compounds for treating cancer” (priority 2001, published 2004).
Like-named read-outs stand apart in the source and are kept apart here.

How the values were obtained:
HL-60/TX1000 = assay: In vitro anti-cancer activity against multi-drug resistant cancer cells, MTS assay; assay type: cell-based; settings: Homo sapiens, HL60/TX1000
Procedure: (§1) The cell lines were maintained in RPMI1640(GIBCO) supplemented with 10% FCS, 100 units/ml penicillin, 100 ug/ml streptomycin, and 2 mM L-glutamine. The cells were split every third day and diluted to a concentration of 2×10^5 cells/ml one day before experiment. All experiments were performed on exponentially growing cell culture. Cell densities were 2.5×10^4 cells/ml in all experiment.
(§2) A stock solution of Compound (1) was prepared by dissolving the compound at a concentration of 1 mM in 100% DMSO. Final concentrations were obtained by diluting the stock solution directly into the tissue culture medium. Cells were incubated with varying concentrations of the compounds for 72 hours and the IC50 was determined by MTS (i.e. […]) assay. IC50 stands for the concentration of compound required to inhibit 50% tumor cell growth.
(§3) In vitro activity was determined in two MDR (Multi Drug Resistant) human cancer cell lines. HL-60/TX1000 was isolated in vitro by subculturing HL-60 in progressively higher concentration of Taxol. HL-60/TX1000 cells over-express mdr-1 mRNA and p-glycoprotein, as determined by western blot and immunofluorescence labeling with antiPGP antibodies. The cell is cross-resistant to Taxol, Vincristine, Adriamycin, Etoposide and Doxorubicin. MES-SA/Dx5 was established in the presence of increasing concentrations of Doxorubicin. […] MES-SA/Dx5 was purchased from ATCC.
(§4) The procedure for culturing the cells and assaying cancer cell growth inhibition were as described in Example 12.
(§5) The protocol described in Examples 12-13 was used to assay inhibition by Compound (2)-(12) on the growth of the multidrug resistant cancer cell line MES-SA/DX5 and HL-60/TX1000.

MES-SA/DX5 = assay: as above; assay type: cell-based; settings: Homo sapiens
Procedure: as §1, §2, §3, §4, §5

p388 = assay: In vitro anti-cancer activity, MTS assay, 72 hours; assay type: cell-based, murine; settings: Mus musculus, p388, 72 hours
Procedure: (§6) The in vitro activity of the compounds was determined in the following seven human cancer cell lines. MDA435 (human breast cancer), MIP10 (human colon cancer), HL-60 (human myeloid leukemia), U937 (human leukemia), p388 (murine leukemia), DU-145 (human prostate cancer), MES-SA (human uterine sarcoma) were obtained from ATCC (American Type of Culture Collection).
as §1, §2

seven cancer cell lines = assay: In vitro anti-cancer activity, summary over seven cancer cell lines; assay type: cell-based; settings: range over the seven cell lines of Table 1; read-out: IC50 against seven cancer cell lines
Procedure: as §6, §1, §2

A549 = assay: In vitro anti-cancer activity, MTS assay, 72 hours; assay type: cell-based; settings: Homo sapiens, A549, 72 hours
MES-SA = assay: In vitro anti-cancer activity, MTS assay, 72 hours; assay type: cell-based; settings: Homo sapiens
Procedure: as §6, §1, §2

H2 = assay: In vitro anti-cancer activity, MTS assay, 72 hours; assay type: cell-based; settings: Homo sapiens, H2, 72 hours
Procedure: as §6, §1, §2

MDA-435 = assay: In vitro anti-cancer activity, MTS assay, 72 hours; assay type: cell-based; settings: Homo sapiens, MDA435, MDA-435, 72 hours
Procedure: as §6, §1, §2

DU-145 = assay: In vitro anti-cancer activity, MTS assay, 72 hours; assay type: cell-based; settings: Homo sapiens, DU-145, 72 hours
Procedure: as §6, §1, §2

HL-60 = assay: In vitro anti-cancer activity, MTS assay, 72 hours; assay type: cell-based; settings: Homo sapiens, HL-60, 72 hours
Procedure: as §6, §1, §2

[1] = test system: MDR cell lines (MES-SA/DX5, HL-60/TX1000); assay: In vitro anti-cancer activity, summary over both MDR cell lines; assay type: cell-based, human
Procedure: as §1, §2
In vitro activity was determined in two MDR (Multi Drug Resistant) human cancer cell lines. HL-60/TX1000 was isolated in vitro by subculturing HL-60 in progressively higher concentration of Taxol. HL-60/TX1000 cells over-express mdr-1 mRNA and p-glycoprotein, as determined by western blot and immunofluorescence labeling with antiPGP antibodies. The cell is cross-resistant to Taxol, Vincristine, Adriamycin, Etoposide and Doxorubicin. […]

[2] = Body weight of treated tumor bearing mice (signs of toxicity); assay type: in vivo, mouse
Procedure: (§7) The in vivo anti-cancer efficacy of Compound (2) was assessed in tumor bearing mice using a tumor growth inhibition assay. Human breast tumor (MDA-435) cells were implanted by injection of a tumor cell suspension subcutaneously in the flank of a nude mouse. Treatment of the tumor with an experimental compound began after the tumor had been established (volume was approximately 100 mm^3). The animal then began a multiple injection schedule where the compound was administered orally. Tumors were measured two times a week. During the course of this assay, animals were monitored daily for signs of toxicity including body weight loss.
A dosing solution for compound administration was prepared by dissolving 1 gram of Compound (2) in 10 ml of acetone (HPLC grade), and sonicated for 5 minutes using 550 Sonic Dismembrator. 1.2 equivalents of 1 N HCl aqueous solution were added to the acetone solution which was then sonicated for 5 minutes. All solvent was then evaporated from the solution by using Speed Vac Plus SC 250 DDA over night. The dried powder was used for preparing the dosing solution of Compound (2). 1% Methyl cellulose (MC) vehicle was prepared by dissolving 1.0 gram of Methyl cellulose, 400 cps, U.S.P. (Spectrum Laboratory Products, Cat. # ME136) in 100 mL of H2O. This mixture was then stirred for 12 hours at room temperature to produce a clear 1% MC solution. […]

[3] = test system: human breast tumor (MDA435); assay: Tumor growth inhibition assay, human breast tumor (MDA435) xenograft model; assay type: in vivo, mouse
Procedure: as §7
A supplemented media was prepared from 50% DMEM/Dulbecco Modified Eagle Medium (High Glucose), 50% RPMI 1640, 10% FBS/Fetal Bovine Serum (Hybridoma Tested; Sterile Filtered), 1% L-Glutamine, 1% Penicillin-Streptomycin, 1% MEM Sodium Pyruvate, 1% MEM Non-Essential Amino Acids. […]
The flask was washed with 10 ml of sterile room temperature phosphate buffered saline (PBS). […] The supernatant was aspirated and the cell pellet was resuspended in 10 ml of supplemented media and the cells were counted. […]
The above procedure for trypsinizing and centrifuging the cells were followed. The supernatant was aspirated and the cell pellet was resuspended in 10 ml of sterile PBS and the cells were counted. […]

[4] = HL-60/TX1000, Table 3, read-out: IC50 (uM) HL-60/TX1000
[5] = MES-SA/DX5, Table 3, read-out: IC50 (uM) MES-SA/DX5
[6] = HL-60/TX1000, Table 2, read-out: IC50
[7] = MES-SA/Dx5, MES-SA/DX-5, Table 2, read-out: IC50

Row | Structure (SMILES) | IC50 (HL-60/TX1000; [4]) [µM] | IC50 (MES-SA/DX5; [5]) [µM] | other results
1 | CC1(C)COC(c2cnc(C(=O)c3cn(Cc4ccc(Cl)cc4)c4ccccc34)[nH]2)=N1 [Compound 12, [1-(4-chlorobenzyl)-1H-indol-3-yl]-[5-(4,4-dimethyl-4,5-dihydro-oxazol-2-yl)-1H-imidazo 1-2-yl]-methanone] | 0.5 | 0.5 | –
2 | O=C(c1nc2ccncc2[nH]1)c1cc(Cc2ccc(Cl)cc2)n2ccccc12 [Compound 7] | 0.05 | 0.5 | –
3 | O=C(c1nc2cnccc2[nH]1)c1cn(Cc2ccc(Cl)c(Cl)c2)c2ccccc12 [Compound 3] | 0.04 | 0.05 | –
4 | O=C(c1nc2ccncc2[nH]1)c1cn(Cc2ccc(Cl)cc2)c2cc(F)ccc12 [Compound 6] | 0.05 | 0.05 | –
5 | Cc1ccc(Cn2cc(C(=O)c3nc4cnccc4[nH]3)c3ccccc32)cc1 [Compound 4] | 0.05 | 0.05 | –
6 | O=C(c1nc(-c2ccccn2)c[nH]1)c1cn(Cc2ccc(Cl)cc2)c2ccccc12 [Compound 9, [1-(4-Chloro-benzyl)-1H-indol-3-yl]-(4-pyridin-2-yl-1H-imidazol-2-yl)-methanone] | 0.5 | 0.5 | –
7 | O=C(c1cccnc1)c1c[nH]c(C(=O)c2cn(Cc3ccc(Cl)cc3)c3ccccc23)n1 [Compound 10, [1-(4-Chlorobenzyl)-1H-indol-3-yl]-[4-(pyridine-3-carbonyl)-1H-imidazol-2-yl]methanone] | 0.5 | 0.5 | –
8 | O=C(c1nc2cnccc2[nH]1)c1cn(Cc2ccc(Cl)cc2)c2ccccc12 [Compound (1)] | – | – | IC50 (HL-60/TX1000; [6]): 0.05 µM; IC50 (MES-SA/DX5; [7]): 0.05 µM; IC50 (p388): 50 nM; IC50 (seven cancer cell lines): 10 to 50 nM; IC50 (A549): 50 nM; IC50 (MES-SA): 10 nM; IC50 (H2): 50 nM; IC50 (MDA-435): 50 nM; IC50 (DU-145): 50 nM; IC50 (HL-60): 50 nM; anti-cancer activity against MDR cancer cell lines ([1]; MES-SA/DX5 and HL-60/TX1000, in words): high anti-cancer activity
9 | CC(=O)O[C@H]1C(=O)[C@@]2(C)[C@H]([C@H](OC(=O)c3ccccc3)[C@]3(O)C[C@H](OC(=O)[C@H](O)[C@@H](NC(=O)c4ccccc4)c4ccccc4)C(C)=C1C3(C)C)[C@]1(OC(C)=O)CO[C@@H]1C[C@@H]2O [Taxol, reference compound] | – | – | IC50 (HL-60/TX1000; [6]): 5 µM; IC50 (MES-SA/DX5; [7]): 5 µM
10 | N#Cc1ccc(Cn2cc(C(=O)c3nc4cnccc4[nH]3)c3ccccc32)cc1 [Compound 2] | 0.05 | 0.05 | change in body weight ([2]; mice treated with Compound (2)): Little or no change in body weight; loss of weight ([2]; nude mice, 25 mg/kg orally, 3 times a week for 3 weeks): less than 5%; tumor growth inhibition ([3]; MDA435 in nude mice, 25 mg/kg orally, 3 times a week for 3 weeks): significantly inhibits tumor growth; reduction of the volume of tumors ([3]; MDA435 tumors in nude mice, administered orally): greater than 50%
11 | Cc1cccc2c(C(=O)c3nc4ccncc4[nH]3)cn(Cc3ccc(Cl)cc3)c12 [Compound 5] | 0.1 | 0.5 | –
12 | CCC(=O)c1c[nH]c(C(=O)c2cn(Cc3ccc(Cl)cc3)c3ccccc23)n1 [Compound 11] | 0.5 | 0.5 | –
13 | COC(=O)c1cnc(C(=O)c2cn(Cc3ccc(Cl)cc3)c3ccccc23)[nH]1 [Compound 8, 2-[1-(4-chloro-benzyl)-1H-indole-3-carbonyl]-3H-imidazole-4-carboxylic acid methyl ester] | 0.05 | 0.1 | –
14 | CC[C@]1(O)C[C@H]2CN(CCc3c([nH]c4ccccc34)[C@@](C(=O)OC)(c3cc4c(cc3OC)N(C=O)[C@H]3[C@@](O)(C(=O)OC)[C@H](OC(C)=O)[C@]5(CC)C=CCN6CC[C@]43[C@@H]65)C2)C1 [Vincristine, reference compound] | – | – | IC50 (HL-60/TX1000; [6]): 5 µM; IC50 (MES-SA/DX5; [7]): 1 µM; IC50 ([1]; Homo sapiens, MES-SA/DX5 and HL-60/TX1000, text summary of Tables 2 and 3, read-out: IC50 against the MDR cell lines): 1000 to 5000 nM
